The values below come from PMC6890677, “Surface Grafted MSI-78A Antimicrobial Peptide has High Potential for Gastric Infection Management” (Scientific Reports, 2019).

Where no end group is shown, it is not given here.

For orientation: MBC means the lowest tested concentration that kills the bacteria rather than only halting them. Low values mean more potent killing, high ones less potent killing. As usually defined, the MIC is the least concentration at which growth counts as inhibited.

Test [1] deals with H. pylori 26695. To be noted: viability of the inoculum reduced by ≥99.9%, CFU on BA after 5 days, 2 replicates in 3 independent experiments. The protocol:
(§1) H. pylori human strains J99 and 26695 (provided by Department of Medical Biochemistry and Biophysics, Umeå University, Sweden), NCTC 11637 (ATCC 43504) and mouse-adapted SS1 strain (provided by Unité de Pathogenèse de Helicobacter, Institut Pasteur, France) were grown following the standard procedure. Briefly, H. pylori was cultured in Blood Agar (BA; Oxoid) supplemented with 10% of defibrinated horse blood (Probiologica) and with an antibiotic cocktail (polymyxin B, vancomycin, amphotericin B, trimethoprim; all from Sigma-Aldrich) under microaerophilic conditions (<5% O2; GenBox System, BioMérieux) at 37 °C for 48 h. Afterwards, some colonies were streaked onto fresh BA medium and kept in culture in the same conditions for another 48 h. Subsequently, bacterial inoculum was adjusted to 0.03 optical density at 600 nm (OD600), which corresponds to approximately 1 × 10^7 colony forming units (CFUs)/mL[48]. Initial inoculum was confirmed by inoculation of 10 μL drops of the bacterial suspension onto BA and CFUs were counted after 5 days of incubation in the same above-mentioned settings.
(§2) The MBC was defined as the lowest AMP concentration that was able to diminish the viability of the initial bacterial inoculum by ≥99.9%. MBC determination followed the CLSI guidelines[49] but briefly, a 50 µL sample was taken from the first three lowest concentrations where no bacterial growth was observed (concentration corresponding to the MIC), serially diluted in PBS until 10^−6 and then spotted on BA. After 5 days of incubation at 37 °C in microaerophilic environment, the CFUs/mL were calculated. Two replicates of each AMP concentration were performed in three independent experiments.

For test [2], the system named is H. pylori NTCC 11637. The following applies: viability of the inoculum reduced by ≥99.9%, CFU on BA after 5 days, 2 replicates in 3 independent experiments. The protocol: as §1, §2
The test system of test [3] is H. pylori J99. The following applies: viability of the inoculum reduced by ≥99.9%, CFU on BA after 5 days, 2 replicates in 3 independent experiments. The protocol: as §1, §2
The test system of test [4] is H. pylori SS1. The test is classed as cell-based, Helicobacter pylori. To be noted: H. pylori SS1 (mouse-adapted); viability of the inoculum reduced by ≥99.9%; CFU on BA after 5 days; 2 replicates in 3 independent experiments. The protocol:
as §1, §2

The subject of test [5] is H. pylori 26695. To be noted: MHB + 10% FBS, 37 °C, microaerophilic, 72 h, 2 replicates in 3 independent experiments. On the procedure:
as §1
(§3) The MICs of the AMPs (Table 1) against H. pylori strains were determined using the microbroth dilution method in Mueller Hinton Broth (MHB) supplemented with 10% of inactivated Fetal Bovine Serum (FBS; Gibco) and in accordance with the Clinical Laboratory Standards Institute (CLSI) guidelines. Briefly, AMPs were diluted in 0.01% of acetic acid with 0.2% Bovine Serum Albumin (BSA; Sigma) to allow AMP protonation and avoid its aggregation, respectively, following an already established protocol. The selected AMPs concentrations ranged from 2 µg/mL up to 512 µg/mL. Incubation was performed at 37 °C in microaerophilic conditions for 72 h. The MIC was defined as the first AMP concentration that prevented visible (naked eye) bacterial growth. Two replicates of each AMP concentration were performed in three independent experiments.

For test [6], the system named is H. pylori SS1. The following applies: H. pylori SS1 (mouse-adapted); MHB + 10% FBS, 37 °C, microaerophilic, 72 h; 2 replicates in 3 independent experiments. The protocol:
as §1, §3

Test [7] has as its system H. pylori NTCC 11637. The following applies: MHB + 10% FBS, 37 °C, microaerophilic, 72 h, 2 replicates in 3 independent experiments. The protocol: as §1, §3
For test [8], the system named is H. pylori J99. To be noted: MHB + 10% FBS, 37 °C, microaerophilic, 72 h, 2 replicates in 3 independent experiments. On the procedure: as §1, §3
The next test relates to S. epidermidis. Put plainly: MIC of AMP in solution, adhesion control strain.

Consider GLLRASSVWGRKYYVDLAGCAKA [Odorranain-HP], for which the MBC in the test with H. pylori 26695 [1], against H. pylori NTCC 11637 [2], against H. pylori J99 [3] and in the test on H. pylori SS1 [4] was above 512 µg/mL each time. Moreover, the MIC in the test with H. pylori 26695 [5], in the test with H. pylori SS1 [6], with H. pylori NTCC 11637 [7] and with H. pylori J99 [8] was above 512 µg/mL throughout.

On to GIGKFLKKAKKFGKAFVKILKK [MSI-78], for which the MBC in the test on H. pylori 26695 [1] is 128 µg/mL; in the test on H. pylori NTCC 11637 [2], above 512 µg/mL; in the test with H. pylori J99 [3], above 512 µg/mL; against H. pylori SS1 [4] it was above 512 µg/mL. In addition, the MIC was 64 µg/mL with H. pylori 26695 [5], 128 µg/mL in the test with H. pylori SS1 [6], 256 µg/mL with H. pylori NTCC 11637 [7] and 256 µg/mL with H. pylori J99 [8].

As for GIGKFLKKAKKFAKAFVKILKK [MSI-78A], the MBC was found to be 32 µg/mL in the test on H. pylori 26695 [1], 256 µg/mL in the test with H. pylori NTCC 11637 [2], 128 µg/mL against H. pylori J99 [3] and 256 µg/mL with H. pylori SS1 [4]. Besides, the MIC in the test on H. pylori 26695 [5] was determined as 16 µg/mL; in the test on H. pylori SS1 [6] it was 128 µg/mL; with H. pylori NTCC 11637 [7], 128 µg/mL; with H. pylori J99 [8], 64 µg/mL; in the test with S. epidermidis it was 2 µg/mL.
